Results from ChEMBL document CHEMBL3351497, “Structure Activity Relationships of αv Integrin Antagonists for Pulmonary Fibrosis by Variation in Aryl Substituents” (ACS Med Chem Lett, 2014).

How the values were obtained:
[1] = target: T1, Integrin alpha-V/beta-6 (Homo sapiens, UniProt P06756+P18564); assay: Inhibition of integrin alphavbeta6 (unknown origin)-mediated K562 cell adhesion to LAPb1 coated surface by fluorescence analysis; format: cell-based
[2] = target: T1, Integrin alpha-V/beta-6; assay: Inhibition of integrin alphavbeta6 (unknown origin) by Merck AG cell assay; format: cell-based
[3] = target: T2, Integrin alpha-V/beta-3 (Homo sapiens, UniProt P05106+P06756); assay: Inhibition of integrin alphavbeta3 (unknown origin)-mediated K562 cell adhesion to LAPb1 coated surface by fluorescence analysis; format: cell-based
[4] = target: Integrin alpha-V/beta-5 (Homo sapiens, UniProt P06756+P18084); assay: Inhibition of integrin alphavbeta5 (unknown origin)-mediated K562 cell adhesion to vitronectin coated surface by fluorescence analysis; format: cell-based
[5] = target: Integrin alpha-V/beta-8 (Homo sapiens, UniProt P06756+P26012); assay: Inhibition of integrin alphavbeta8 (unknown origin)-mediated K562 cell adhesion to LAPb1 coated surface by fluorescence analysis; format: cell-based
[6] = Lipophilicity, log D of the compound by HPLC chromatographic method; format: physicochemical
[7] = tested on: K562; assay: Selectivity ratio of IC50 for integrin alphavbeta6 (unknown origin)-mediated K562 cell adhesion to LAPb1 coated surface to IC50 for integrin alphavbeta3 (unknown origin)-mediated K562 cell adhesion to LAPb1 coated surface; format: cell-based; details: Homo sapiens
[8] = tested on: K562; assay: Selectivity ratio of IC50 for integrin alphavbeta6 (unknown origin)-mediated K562 cell adhesion to LAPb1 coated surface to IC50 for integrin alphavbeta5 (unknown origin)-mediated K562 cell adhesion to vitronectin coated surface; format: cell-based; details: Homo sapiens
[9] = tested on: K562; assay: Selectivity ratio of IC50 for integrin alphavbeta8 (unknown origin)-mediated K562 cell adhesion to LAPb1 coated surface to IC50 for integrin alphavbeta3 (unknown origin)-mediated K562 cell adhesion to LAPb1 coated surface; format: cell-based; details: Homo sapiens
[10] = tested on: K562; assay: Selectivity ratio of IC50 for integrin alphavbeta8 (unknown origin)-mediated K562 cell adhesion to LAPb1 coated surface to IC50 for integrin alphavbeta5 (unknown origin)-mediated K562 cell adhesion to vitronectin coated surface; format: cell-based; details: Homo sapiens
[11] = target: T2, Integrin alpha-V/beta-3; assay: Inhibition of integrin alphavbeta3 (unknown origin) by Merck binding assay; format: protein-complex assay

T2 sequence (P05106 27-788 limits assumed): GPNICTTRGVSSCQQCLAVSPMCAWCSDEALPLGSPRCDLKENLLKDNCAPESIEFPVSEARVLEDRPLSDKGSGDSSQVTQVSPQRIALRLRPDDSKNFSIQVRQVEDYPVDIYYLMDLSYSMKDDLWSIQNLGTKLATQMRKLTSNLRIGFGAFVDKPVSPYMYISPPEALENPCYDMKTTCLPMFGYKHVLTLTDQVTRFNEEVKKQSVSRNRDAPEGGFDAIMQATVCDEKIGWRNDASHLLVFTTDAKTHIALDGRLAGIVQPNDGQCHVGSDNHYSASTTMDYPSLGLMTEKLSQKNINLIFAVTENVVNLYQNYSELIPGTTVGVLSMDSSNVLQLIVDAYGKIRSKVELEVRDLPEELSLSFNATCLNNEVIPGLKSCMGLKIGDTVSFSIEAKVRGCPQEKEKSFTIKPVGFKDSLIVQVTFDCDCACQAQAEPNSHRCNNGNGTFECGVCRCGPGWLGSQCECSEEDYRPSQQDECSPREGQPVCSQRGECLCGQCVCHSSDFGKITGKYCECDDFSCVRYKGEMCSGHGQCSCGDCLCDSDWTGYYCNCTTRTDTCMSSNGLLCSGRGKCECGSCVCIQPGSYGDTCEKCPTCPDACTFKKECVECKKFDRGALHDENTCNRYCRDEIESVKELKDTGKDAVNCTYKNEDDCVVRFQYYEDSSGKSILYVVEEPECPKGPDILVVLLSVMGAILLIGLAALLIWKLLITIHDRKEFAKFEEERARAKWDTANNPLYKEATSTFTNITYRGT
T2 sequence (P06756 31-889 limits assumed): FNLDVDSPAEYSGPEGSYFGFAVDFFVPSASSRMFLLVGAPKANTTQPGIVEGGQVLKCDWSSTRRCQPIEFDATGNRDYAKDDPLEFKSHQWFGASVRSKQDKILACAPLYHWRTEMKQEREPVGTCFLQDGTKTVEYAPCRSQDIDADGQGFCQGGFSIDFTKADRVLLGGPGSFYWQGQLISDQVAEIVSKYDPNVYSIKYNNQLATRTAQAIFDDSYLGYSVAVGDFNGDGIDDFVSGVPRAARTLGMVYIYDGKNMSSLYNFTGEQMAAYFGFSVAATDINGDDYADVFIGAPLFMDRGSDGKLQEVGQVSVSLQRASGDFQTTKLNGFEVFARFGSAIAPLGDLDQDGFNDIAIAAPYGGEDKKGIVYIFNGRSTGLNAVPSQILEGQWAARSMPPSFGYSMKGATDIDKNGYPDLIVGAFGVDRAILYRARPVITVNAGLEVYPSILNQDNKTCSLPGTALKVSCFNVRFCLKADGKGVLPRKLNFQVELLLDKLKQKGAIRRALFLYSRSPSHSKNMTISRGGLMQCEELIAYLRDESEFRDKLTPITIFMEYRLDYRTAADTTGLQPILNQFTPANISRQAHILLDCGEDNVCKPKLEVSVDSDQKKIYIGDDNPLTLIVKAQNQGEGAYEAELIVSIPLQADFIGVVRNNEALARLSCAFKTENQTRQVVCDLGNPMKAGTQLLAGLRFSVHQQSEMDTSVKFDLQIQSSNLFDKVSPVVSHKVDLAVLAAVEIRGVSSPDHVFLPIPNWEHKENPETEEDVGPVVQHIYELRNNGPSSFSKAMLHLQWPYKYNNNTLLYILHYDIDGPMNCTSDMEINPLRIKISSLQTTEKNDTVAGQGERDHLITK
T2 sequence (P06756 891-1048 limits assumed): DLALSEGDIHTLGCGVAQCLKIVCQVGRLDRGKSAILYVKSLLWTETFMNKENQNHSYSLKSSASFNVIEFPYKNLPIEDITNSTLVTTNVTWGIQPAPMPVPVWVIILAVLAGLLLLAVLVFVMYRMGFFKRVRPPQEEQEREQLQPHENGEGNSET
Chain of Integrin alpha-V/beta-8 (P06756 31-889 limits assumed): as the sequence (P06756 31-889 limits assumed) above
Chain of Integrin alpha-V/beta-8 (P06756 891-1048 limits assumed): as the sequence (P06756 891-1048 limits assumed) above
Chain of Integrin alpha-V/beta-8 (P26012 43-769 limits assumed): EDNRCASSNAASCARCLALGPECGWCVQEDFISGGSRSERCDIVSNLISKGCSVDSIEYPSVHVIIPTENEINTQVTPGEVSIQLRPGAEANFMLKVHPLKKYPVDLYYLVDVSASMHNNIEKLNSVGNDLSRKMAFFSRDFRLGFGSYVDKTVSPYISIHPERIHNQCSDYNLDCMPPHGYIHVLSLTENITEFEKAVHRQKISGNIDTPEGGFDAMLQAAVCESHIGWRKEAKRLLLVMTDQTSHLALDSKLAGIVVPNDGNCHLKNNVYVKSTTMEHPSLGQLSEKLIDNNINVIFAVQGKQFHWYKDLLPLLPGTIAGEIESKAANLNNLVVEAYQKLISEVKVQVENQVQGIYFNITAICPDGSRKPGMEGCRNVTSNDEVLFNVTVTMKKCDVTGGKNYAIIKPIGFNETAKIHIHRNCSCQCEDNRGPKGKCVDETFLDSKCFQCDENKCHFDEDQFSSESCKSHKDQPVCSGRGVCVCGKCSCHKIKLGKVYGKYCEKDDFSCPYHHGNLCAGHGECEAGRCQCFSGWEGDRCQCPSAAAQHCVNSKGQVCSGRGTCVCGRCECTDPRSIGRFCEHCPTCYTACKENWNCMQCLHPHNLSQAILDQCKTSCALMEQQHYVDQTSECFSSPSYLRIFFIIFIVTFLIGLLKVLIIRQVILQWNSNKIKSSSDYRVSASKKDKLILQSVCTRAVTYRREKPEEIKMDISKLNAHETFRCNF
T1 sequence (P06756 31-889 limits assumed): as the sequence (P06756 31-889 limits assumed) above
T1 sequence (P06756 891-1048 limits assumed): as the sequence (P06756 891-1048 limits assumed) above
T1 sequence (P18564 22-788 limits assumed): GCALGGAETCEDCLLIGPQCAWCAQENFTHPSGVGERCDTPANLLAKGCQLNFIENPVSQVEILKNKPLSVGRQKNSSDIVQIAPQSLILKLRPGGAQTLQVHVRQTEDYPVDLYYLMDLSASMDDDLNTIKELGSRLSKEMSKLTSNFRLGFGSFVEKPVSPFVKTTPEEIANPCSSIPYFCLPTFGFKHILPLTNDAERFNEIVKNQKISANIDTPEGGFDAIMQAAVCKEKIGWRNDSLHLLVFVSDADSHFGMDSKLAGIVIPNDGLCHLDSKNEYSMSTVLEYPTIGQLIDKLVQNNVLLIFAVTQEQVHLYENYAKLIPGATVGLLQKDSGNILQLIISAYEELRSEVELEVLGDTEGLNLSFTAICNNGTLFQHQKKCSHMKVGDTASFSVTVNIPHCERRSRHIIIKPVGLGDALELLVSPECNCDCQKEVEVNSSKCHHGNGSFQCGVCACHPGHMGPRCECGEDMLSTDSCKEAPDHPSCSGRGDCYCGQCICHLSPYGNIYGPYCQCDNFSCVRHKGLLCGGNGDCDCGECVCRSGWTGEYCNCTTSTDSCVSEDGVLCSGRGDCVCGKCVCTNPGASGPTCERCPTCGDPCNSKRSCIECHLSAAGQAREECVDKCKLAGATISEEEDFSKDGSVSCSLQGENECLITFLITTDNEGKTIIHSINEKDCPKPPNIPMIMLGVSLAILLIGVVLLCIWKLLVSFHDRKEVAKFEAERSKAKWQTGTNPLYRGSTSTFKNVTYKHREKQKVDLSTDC
Chain of Integrin alpha-V/beta-5 (P06756 31-889 limits assumed): as the sequence (P06756 31-889 limits assumed) above
Chain of Integrin alpha-V/beta-5 (P06756 891-1048 limits assumed): as the sequence (P06756 891-1048 limits assumed) above
Chain of Integrin alpha-V/beta-5 (P18084 24-799 limits assumed): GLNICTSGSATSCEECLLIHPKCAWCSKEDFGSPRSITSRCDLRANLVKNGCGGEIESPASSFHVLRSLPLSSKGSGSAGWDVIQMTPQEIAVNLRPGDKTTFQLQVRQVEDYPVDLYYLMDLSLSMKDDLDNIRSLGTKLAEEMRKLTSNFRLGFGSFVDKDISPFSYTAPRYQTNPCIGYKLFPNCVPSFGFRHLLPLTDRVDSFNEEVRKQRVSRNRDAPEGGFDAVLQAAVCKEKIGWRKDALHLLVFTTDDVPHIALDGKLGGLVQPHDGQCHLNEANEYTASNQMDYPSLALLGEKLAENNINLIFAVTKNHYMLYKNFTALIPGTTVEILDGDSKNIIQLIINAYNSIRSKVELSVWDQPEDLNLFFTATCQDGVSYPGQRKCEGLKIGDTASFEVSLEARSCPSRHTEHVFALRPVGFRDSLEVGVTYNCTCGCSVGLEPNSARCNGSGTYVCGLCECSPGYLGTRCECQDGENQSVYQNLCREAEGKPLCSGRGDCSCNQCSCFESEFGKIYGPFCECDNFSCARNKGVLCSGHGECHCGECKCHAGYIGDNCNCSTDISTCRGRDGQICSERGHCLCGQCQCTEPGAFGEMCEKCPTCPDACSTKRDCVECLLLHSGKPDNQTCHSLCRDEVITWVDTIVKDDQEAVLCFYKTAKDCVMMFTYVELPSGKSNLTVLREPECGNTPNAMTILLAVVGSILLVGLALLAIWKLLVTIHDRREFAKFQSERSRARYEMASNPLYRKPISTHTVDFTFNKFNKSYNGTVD

| SMILES | IC50 [1] | IC50 [2] | IC50 [3] | IC50 [4] | IC50 [5] | chromatographic logD [6] | IC50 [11] | logD [6] | Ratio IC50 [7] | Ratio IC50 [8] | Ratio IC50 [9] | Ratio IC50 [10] |
| --- | --- | --- | --- | --- | --- | --- | --- | --- | --- | --- | --- | --- |
| O=C(O)C[C@H](NC(=O)C(COCc1ccccc1)NC(=O)CCCCNc1ccccn1)c1cc(Cl)cc(Cl)c1 (stereo not given in full) | 1000 nM | 200 nM | – | – | – | – | – | – | – | – | – | – |
| O=C(O)C[C@@H](NC(=O)CCCCc1ccc2c(n1)NCCC2)c1cccc(C(F)(F)F)c1 | 6310 nM | – | > 10000 nM | 2000 nM | > 10000 nM | 2.61 | – | – | – | – | – | – |
| O=C(O)CC(NC(=O)CCCCc1ccc2c(n1)NCCC2)c1ccc(Cl)cc1 (racemic) | 398 nM | – | 126 nM | 126 nM | 631 nM | 2.14 | – | – | – | – | – | – |
| O=C(O)CC(NC(=O)CCCCc1ccc2c(n1)NCCC2)c1ccccc1 (racemic) | 2000 nM | – | 100 nM | 79.4 nM | 794 nM | 1.56 | – | – | 10 | 10 | 10 | 10 |
| O=C(O)CC(NC(=O)CCCCc1ccc2c(n1)NCCC2)c1ccccc1F (racemic) | 1000 nM | – | 316 nM | 100 nM | 3980 nM | 1.88 | – | – | – | – | – | – |
| O=C(O)CC(NC(=O)CCCCc1ccc2c(n1)NCCC2)c1ccccc1Cl (racemic) | > 10000 nM | – | 2000 nM | 1580 nM | > 10000 nM | 1.92 | – | – | – | – | – | – |
| Cc1ccccc1C(CC(=O)O)NC(=O)CCCCc1ccc2c(n1)NCCC2 (racemic) | 398 nM | – | 50.1 nM | 20 nM | 1260 nM | 1.85 | – | – | – | – | – | – |
| COc1ccccc1C(CC(=O)O)NC(=O)CCCCc1ccc2c(n1)NCCC2 (racemic) | > 10000 nM | – | 501 nM | 501 nM | > 10000 nM | 1.83 | – | – | – | – | – | – |
| O=C(O)CC(NC(=O)CCCCc1ccc2c(n1)NCCC2)c1cccc(F)c1 (racemic) | 794 nM | – | 31.6 nM | 15.8 nM | 1580 nM | 1.92 | 23 nM | – | 10 | 10 | 10 | 10 |
| Cc1cccc(C(CC(=O)O)NC(=O)CCCCc2ccc3c(n2)NCCC3)c1 (racemic) | 398 nM | – | 158 nM | 50.1 nM | 631 nM | 1.95 | – | – | – | – | – | – |
| O=C(O)CC(NC(=O)CCCCc1ccc2c(n1)NCCC2)c1ccc(F)cc1 (racemic) | 501 nM | – | 100 nM | 63.1 nM | 501 nM | 1.75 | – | – | – | – | – | – |
| Cc1ccc(C(CC(=O)O)NC(=O)CCCCc2ccc3c(n2)NCCC3)cc1 (racemic) | 794 nM | – | 39.8 nM | 100 nM | 1000 nM | 1.97 | – | – | – | – | – | – |
| COc1ccc(C(CC(=O)O)NC(=O)CCCCc2ccc3c(n2)NCCC3)cc1 (racemic) | 501 nM | – | 25.1 nM | 50.1 nM | 501 nM | 1.64 | – | – | 10 | 10 | 10 | 10 |
| N#Cc1ccc(C(CC(=O)O)NC(=O)CCCCc2ccc3c(n2)NCCC3)cc1 (racemic) | 398 nM | – | 79.4 nM | 398 nM | 794 nM | 1.47 | – | – | – | – | – | – |
| O=C(O)CC(NC(=O)CCCCc1ccc2c(n1)NCCC2)c1ccc(C(F)(F)F)cc1 (racemic) | 631 nM | – | 251 nM | 316 nM | 794 nM | 2.72 | – | – | – | – | – | – |
| O=C(O)CC(NC(=O)CCCCc1ccc2c(n1)NCCC2)c1ccc(OC(F)(F)F)cc1 (racemic) | 631 nM | – | 158 nM | 501 nM | 794 nM | 2.85 | – | – | – | – | – | – |
| CS(=O)(=O)c1ccc(C(CC(=O)O)NC(=O)CCCCc2ccc3c(n2)NCCC3)cc1 (racemic) | 631 nM | – | 126 nM | 398 nM | 794 nM | 1.08 | – | – | – | – | – | – |
| O=C(O)CC(NC(=O)CCCCc1ccc2c(n1)NCCC2)c1ccc(-c2ccccc2)cc1 (racemic) | 398 nM | – | 100 nM | 631 nM | 316 nM | 3.1 | – | – | – | – | – | – |
| O=C(O)CC(NC(=O)CCCCc1ccc2c(n1)NCCC2)c1cccc(Cl)c1Cl (racemic) | 7940 nM | – | 3980 nM | 501 nM | 10000 nM | 2.73 | – | – | – | – | – | – |
| Cc1cc(C)cc(C(CC(=O)O)NC(=O)CCCCc2ccc3c(n2)NCCC3)c1 (racemic) | 501 nM | – | 398 nM | 398 nM | 631 nM | 2.43 | – | – | – | – | – | – |
| O=C(O)CC(NC(=O)CCCCc1ccc2c(n1)NCCC2)c1ccc(Cl)c(C(F)(F)F)c1 (single isomer, unassigned; enantiomer 2) | > 10000 nM | – | 1580 nM | 631 nM | > 10000 nM | – | – | 3.25 | – | – | – | – |
| O=C(O)CC(NC(=O)CCCCc1ccc2c(n1)NCCC2)c1cc(Cl)cc(Cl)c1 (stereo in doubt; 37E1) | 6310 nM | – | > 10000 nM | 1000 nM | > 10000 nM | – | – | 2.97 | – | – | – | – |

Molecules with a lower IC50 [1], results first:

| IC50 [1] | IC50 [2] | IC50 [3] | IC50 [4] | IC50 [5] | chromatographic logD [6] | IC50 [11] | logD [6] | SMILES | Ratio IC50 [7] | Ratio IC50 [8] | Ratio IC50 [9] | Ratio IC50 [10] |
| --- | --- | --- | --- | --- | --- | --- | --- | --- | --- | --- | --- | --- |
| 316 nM | – | 39.8 nM | 63.1 nM | 501 nM | 1.66 | – | – | COc1cccc(C(CC(=O)O)NC(=O)CCCCc2ccc3c(n2)NCCC3)c1 (racemic) | 10 | 10 | 10 | 10 |
| 316 nM | – | 100 nM | 63.1 nM | 398 nM | 1.37 | – | – | COc1ccc(C(CC(=O)O)NC(=O)CCCCc2ccc3c(n2)NCCC3)cc1OC (racemic) | – | – | – | – |
| 251 nM | – | 79.4 nM | 25.1 nM | 501 nM | 2.3 | – | – | O=C(O)CC(NC(=O)CCCCc1ccc2c(n1)NCCC2)c1cccc(Cl)c1 (racemic) | – | – | – | – |
| 251 nM | – | 200 nM | 39.8 nM | 1000 nM | 1.67 | – | – | N#Cc1cccc(C(CC(=O)O)NC(=O)CCCCc2ccc3c(n2)NCCC3)c1 (racemic) | – | – | – | – |
| 251 nM | – | 398 nM | 200 nM | 251 nM | 2.93 | – | – | O=C(O)CC(NC(=O)CCCCc1ccc2c(n1)NCCC2)c1cc(Cl)cc(Cl)c1 (racemic) | – | – | – | – |
| 251 nM | – | 15.8 nM | 12.6 nM | 794 nM | 1.47 | – | – | O=C(O)CC(NC(=O)CCCCc1ccc2c(n1)NCCC2)c1ccc2c(c1)OCO2 (racemic) | – | – | – | – |
| 200 nM | – | 398 nM | 79.4 nM | 251 nM | 3.11 | – | – | O=C(O)CC(NC(=O)CCCCc1ccc2c(n1)NCCC2)c1cccc(OC(F)(F)F)c1 (racemic) | – | – | – | – |
| 200 nM | – | 50.1 nM | 100 nM | 200 nM | 2.62 | – | – | O=C(O)CC(NC(=O)CCCCc1ccc2c(n1)NCCC2)c1ccc(Cl)c(Cl)c1 (racemic) | – | – | – | – |
| 200 nM | – | 63.1 nM | 63.1 nM | 501 nM | 2.29 | – | – | Cc1ccc(C(CC(=O)O)NC(=O)CCCCc2ccc3c(n2)NCCC3)cc1C (racemic) | – | – | – | – |
| 158 nM | – | – | – | – | – | – | – | N=C(N)Nc1cccc(C(=O)NCC(=O)NC(CC(=O)O)c2cc(Cl)cc(Cl)c2)c1 (stereo not given) | – | – | – | – |
| 158 nM | – | 126 nM | 79.4 nM | 398 nM | 2.52 | – | – | O=C(O)CC(NC(=O)CCCCc1ccc2c(n1)NCCC2)c1ccc2c(c1)CCC2 (racemic) | – | – | – | – |
| 158 nM | – | 126 nM | 251 nM | 100 nM | – | – | 2.8 | O=C(O)CC(NC(=O)CCCCc1ccc2c(n1)NCCC2)c1cc(Cl)cc(Cl)c1 (single isomer, unassigned; enantiomer 2) | – | – | – | – |
| 100 nM | – | 200 nM | 39.8 nM | 158 nM | 2.73 | – | – | O=C(O)CC(NC(=O)CCCCc1ccc2c(n1)NCCC2)c1cccc(C(F)(F)F)c1 (racemic) | – | – | – | – |
| 100 nM | – | 316 nM | 126 nM | 251 nM | 3.1 | – | – | O=C(O)CC(NC(=O)CCCCc1ccc2c(n1)NCCC2)c1ccc(Cl)c(C(F)(F)F)c1 (racemic) | – | – | – | – |
| 79.4 nM | – | 100 nM | 63.1 nM | 126 nM | 2.72 | – | – | O=C(O)C[C@H](NC(=O)CCCCc1ccc2c(n1)NCCC2)c1cccc(C(F)(F)F)c1 | – | – | – | – |
| 63.1 nM | – | 158 nM | 63.1 nM | 126 nM | – | – | 3.28 | O=C(O)CC(NC(=O)CCCCc1ccc2c(n1)NCCC2)c1ccc(Cl)c(C(F)(F)F)c1 (single isomer, unassigned; enantiomer 1) | – | – | – | – |
